Measurements taken from patent US6737383B1, “Herbicidal oxadiazolidines” (priority 1999, dated 2004).

Experiments:
wild oat = test: Test B pre/postemergence wild oat; format: in vivo, Avena fatua
Method in brief: (§1)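 Herbicidal effect was estimated by eye on a ten-point control scale after plants spent twelve to sixteen days in a greenhouse following soil or foliar treatment. Foliar sprays targeted plants at one to four leaves; all doses were formulated in a non-phytotoxic solvent with surfactant.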

cocklebur = test: Test B pre/postemergence cocklebur; format: in vivo, Xanthium strumarium
Method in brief: as §1

wheat = test: Test B pre/postemergence wheat; format: in vivo, Triticum aestivum
Method in brief: as §1

surinam grass = test: Test B pre/postemergence surinam grass; format: in vivo, Brachiaria decumbens
Method in brief: as §1

smallflower flatsedge = test: Test B flood test smallflower flatsedge; format: in vivo, Cyperus difformis
Method in brief: (§2)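 Each value is a visual injury score relative to controls, with 10 meaning complete control and 0 no effect. Evaluation took place twelve to sixteen days after the 2-leaf-stage plants were treated and kept in the greenhouse.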

sugar beet = test: Test B pre/postemergence sugar beet; format: in vivo, Beta vulgaris
Method in brief: as §1

blackgrass = test: Test B pre/postemergence blackgrass; format: in vivo, Alopecurus myosuroides
Method in brief: as §1

bedstraw = test: Test B pre/postemergence bedstraw; format: in vivo, Galium aparine
Method in brief: as §1

crabgrass = test: Test B pre/postemergence crabgrass; format: in vivo, Digitaria sanguinalis
Method in brief: as §1

corn = test: Test B pre/postemergence corn; format: in vivo, Zea mays
Method in brief: as §1

purple nutsedge = test: Test B pre/postemergence purple nutsedge; format: in vivo, Cyperus rotundus; conditions: Preemergence
Method in brief: as §1

pigweed = test: Test B pre/postemergence pigweed; format: in vivo, Amaranthus retroflexus
Method in brief: as §1

rape = test: Test B pre/postemergence rape; format: in vivo, Brassica napus
Method in brief: as §1

velvetleaf = test: Test B pre/postemergence velvetleaf; format: in vivo, Abutilon theophrasti
Method in brief: as §1

soybean = test: Test B pre/postemergence soybean; format: in vivo, Glycine max
Method in brief: as §1

bamyardgrass = test: Test B flood test barnyardgrass; format: in vivo, Echinochloa crus-galli
Method in brief: as §2

[1] = Postemergence, Rate 250 g/ha, scale 0 to 10, 0 no effect, 10 complete control
[2] = Postemergence, Rate 1000 g/ha, scale 0 to 10 (0 no effect, 10 complete control)
[3] = Preemergence, Rate 125 g/ha, scale 0 to 10 (0 no effect, 10 complete control)
[4] = Preemergence, Rate 250 g/ha, scale of 0 to 10 where 0 is no effect and 10 is complete control
[5] = Preemergence, Rate 500 g/ha, scale 0 (no effect) to 10 (complete control)
[6] = Rate 125 g/ha, Postemergence, scale 0 to 10, 0 no effect, 10 complete control
[7] = Rate 1000 g/ha, Preemergence, scale 0 to 10 (0 no effect, 10 complete control)
[8] = Rate 500 g/ha, Postemergence, 0 to 10 scale (0 no effect, 10 complete control)
[9] = Rate 125 g/ha, Postemergence section (flood test species), scale 0 to 10, 0 no effect, 10 complete control
[10] = flood test, listed under Postemergence, Rate 250 g/ha, scale 0 to 10, 0 no effect, 10 complete control

CC(C)N(C(=O)n1oc(=O)n(-c2cc(Cl)cc(Cl)c2)c1=O)C1=CCOCC1 [Compound 9]
Wild oats plant response rating (wild oat; [1]): 0 | Wild oats plant response rating (wild oat; [2]): 0 | Plant response rating, Wild oats (wild oat; [3]): 0 | Plant response rating, Wild oats (wild oat; [4]): 0 | Wild oats plant response rating (wild oat; [5]): 0 | Wild oats plant response rating (wild oat; [6]): 0 | Plant response rating, Wild oats (wild oat; [7]): 0 | Cocklebur plant response rating (cocklebur; [1]): 0 | Cocklebur plant response rating (cocklebur; [2]): 4 | Plant response rating, Cocklebur (cocklebur; [3]): 0 | Plant response rating, Cocklebur (cocklebur; [4]): 0 | Cocklebur plant response rating (cocklebur; [5]): 0 | Cocklebur plant response rating (cocklebur; [6]): 0 | Cocklebur plant response rating (cocklebur; [8]): 0 | Plant response rating, Cocklebur (cocklebur; [7]): 0 | Wheat plant response rating (wheat; [1]): 0 | Wheat plant response rating (wheat; [2]): 0 | Plant response rating, Wheat (wheat; [3]): 0 | Plant response rating, Wheat (wheat; [4]): 0 | Wheat plant response rating (wheat; [5]): 0 | Wheat plant response rating (wheat; [6]): 0 | Plant response rating, Wheat (wheat; [7]): 0 | B. signalgrass plant response rating (surinam grass; [1]): 0 | B. signalgrass plant response rating (surinam grass; [2]): 0 | Plant response rating, B. signalgrass (surinam grass; [3]): 0 | Plant response rating, B. signalgrass (surinam grass; [4]): 0 | B. signalgrass plant response rating (surinam grass; [5]): 0 | B. signalgrass plant response rating (surinam grass; [6]): 0 | B. signalgrass plant response rating (surinam grass; [8]): 0 | Plant response rating, B. signalgrass (surinam grass; [7]): 0 | S. Flatsedge plant response rating (smallflower flatsedge; [2]): 0 | S. Flatsedge plant response rating (smallflower flatsedge; [9]): 0 | S. Flatsedge plant response rating (smallflower flatsedge; [10]): 0 | Sugarbeets plant response rating (sugar beet; [1]): 0 | Sugarbeets plant response rating (sugar beet; [2]): 0 | Plant response rating, Sugarbeets (sugar beet; [3]): 0 | Plant response rating, Sugarbeets (sugar beet; [4]): 0 | Sugarbeets plant response rating (sugar beet; [5]): 0 | Sugarbeets plant response rating (sugar beet; [6]): 0 | Plant response rating, Sugarbeets (sugar beet; [7]): 0 | Blackgrass plant response rating (blackgrass; [1]): 0 | Blackgrass plant response rating (blackgrass; [2]): 3 | Plant response rating, Blackgrass (blackgrass; [3]): 0 | Plant response rating, Blackgrass (blackgrass; [4]): 0 | Blackgrass plant response rating (blackgrass; [5]): 0 | Blackgrass plant response rating (blackgrass; [6]): 0 | Blackgrass plant response rating (blackgrass; [8]): 2 | Plant response rating, Blackgrass (blackgrass; [7]): 0 | Bedstraw plant response rating (bedstraw; [1]): 0 | Plant response rating, Bedstraw (bedstraw; [3]): 0 | Plant response rating, Bedstraw (bedstraw; [4]): 0 | Bedstraw plant response rating (bedstraw; [5]): 0 | Bedstraw plant response rating (bedstraw; [6]): 0 | Bedstraw plant response rating (bedstraw; [8]): 0 | Plant response rating, Bedstraw (bedstraw; [7]): 0 | Crabgrass plant response rating (crabgrass; [1]): 0 | Crabgrass plant response rating (crabgrass; [2]): 0 | Plant response rating, Crabgrass (crabgrass; [3]): 3 | Plant response rating, Crabgrass (crabgrass; [4]): 0 | Crabgrass plant response rating (crabgrass; [5]): 3 | Crabgrass plant response rating (crabgrass; [6]): 0 | Crabgrass plant response rating (crabgrass; [8]): 0 | Plant response rating, Crabgrass (crabgrass; [7]): 3 | Corn plant response rating (corn; [1]): 0 | Corn plant response rating (corn; [2]): 0 | Plant response rating, Corn (corn; [3]): 0 | Plant response rating, Corn (corn; [4]): 0 | Corn plant response rating (corn; [5]): 0 | Corn plant response rating (corn; [6]): 0 | Corn plant response rating (corn; [8]): 0 | Plant response rating, Corn (corn; [7]): 3 | Plant response rating, Nutsedge (purple nutsedge; Rate 125 g/ha, scale 0 to 10 (0 no effect, 10 complete control)): 0 | Plant response rating, Nutsedge (purple nutsedge; Rate 250 g/ha, scale of 0 to 10 where 0 is no effect and 10 is complete control): 0 | Nutsedge plant response rating (purple nutsedge; Rate 500 g/ha, scale 0 (no effect) to 10 (complete control)): 0 | Plant response rating, Nutsedge (purple nutsedge; Rate 1000 g/ha, scale 0 to 10 (0 no effect, 10 complete control)): 0 | Redroot pigweed plant response rating (pigweed; [1]): 0 | Redroot pigweed plant response rating (pigweed; [2]): 3 | Plant response rating, Redroot pigweed (pigweed; [3]): 0 | Plant response rating, Redroot pigweed (pigweed; [4]): 0 | Redroot pigweed plant response rating (pigweed; [5]): 0 | Redroot pigweed plant response rating (pigweed; [6]): 0 | Redroot pigweed plant response rating (pigweed; [8]): 3 | Plant response rating, Redroot pigweed (pigweed; [7]): 0 | Rape plant response rating (rape; [1]): 0 | Rape plant response rating (rape; [2]): 0 | Plant response rating, Rape (rape; [3]): 0 | Plant response rating, Rape (rape; [4]): 0 | Rape plant response rating (rape; [5]): 0 | Rape plant response rating (rape; [6]): 0 | Rape plant response rating (rape; [8]): 0 | Plant response rating, Rape (rape; [7]): 0 | Velvetleaf plant response rating (velvetleaf; [1]): 0 | Velvetleaf plant response rating (velvetleaf; [2]): 0 | Plant response rating, Velvetleaf (velvetleaf; [3]): 0 | Plant response rating, Velvetleaf (velvetleaf; [4]): 0 | Velvetleaf plant response rating (velvetleaf; [5]): 0 | Velvetleaf plant response rating (velvetleaf; [6]): 0 | Plant response rating, Velvetleaf (velvetleaf; [7]): 0 | Soybean plant response rating (soybean; [1]): 0 | Soybean plant response rating (soybean; [2]): 1 | Plant response rating, Soybean (soybean; [3]): 0 | Plant response rating, Soybean (soybean; [4]): 0 | Soybean plant response rating (soybean; [5]): 0 | Soybean plant response rating (soybean; [6]): 0 | Plant response rating, Soybean (soybean; [7]): 0 | Barnyardgrass plant response rating (bamyardgrass; [2]): 0 | Barnyardgrass plant response rating (bamyardgrass; [9]): 0 | Barnyardgrass plant response rating (bamyardgrass; Rate 500 g/ha, Postemergence section of Table B, 0 to 10 scale (0 no effect, 10 complete control)): 0 | Barnyardgrass plant response rating (bamyardgrass; [10]): 0
